Data from ChEMBL document CHEMBL1914379, “Challenges of drug discovery in novel target space. The discovery and evaluation of PF-3893787: a novel histamine H4 receptor antagonist” (Bioorg Med Chem Lett, 2011).
Values belong to the compound of their own block, whether it stands above or below them. Activity calls are given as the source filed them. The rule behind the calls is not given here.

Columns and labels:
HEK-293T [1] = assay: Inverse agonist activity at macaque H4R expressed in HEK293T cells assessed as reversal of forskolin-induced cAMP production by CRE-beta-lactamase reporter gene assay; format: functional, cell-based; details: Macaca mulatta
HEK-293T [2] = assay: Antagonist activity at dog H4R expressed in HEK293T cells assessed as reversal of forskolin-induced cAMP production by CRE-beta-lactamase reporter gene assay; format: functional, cell-based; details: Canis lupus familiaris
[3] = biological target: Histamine H4 receptor (Rattus norvegicus) (UniProt Q91ZY1); assay: Partial agonist activity at rat H4R expressed in HEK293T cells assessed as reversal of forskolin-induced cAMP production by CRE-beta-lactamase reporter gene assay; format: functional, cell-based; details: HEK-293T
Sequence of Histamine H4 receptor (Rattus norvegicus) (Q91ZY1 whole entry): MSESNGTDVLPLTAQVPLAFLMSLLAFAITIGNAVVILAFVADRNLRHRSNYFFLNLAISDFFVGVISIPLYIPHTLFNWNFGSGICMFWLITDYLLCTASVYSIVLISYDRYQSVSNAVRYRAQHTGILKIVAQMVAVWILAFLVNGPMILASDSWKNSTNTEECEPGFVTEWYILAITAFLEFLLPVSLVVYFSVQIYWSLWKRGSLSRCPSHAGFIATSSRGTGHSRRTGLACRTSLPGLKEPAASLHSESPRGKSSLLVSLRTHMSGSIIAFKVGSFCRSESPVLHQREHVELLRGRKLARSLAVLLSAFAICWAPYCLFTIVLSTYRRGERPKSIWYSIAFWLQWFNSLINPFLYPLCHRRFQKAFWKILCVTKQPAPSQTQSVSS

[4] = Metabolic stability in human liver microsomes; format: ADME, Microsome; details: read-out: Stability
[5] = Metabolic stability in rat liver microsomes; format: ADME, Microsome; details: read-out: Stability
Histamine H4 receptor [6] = biological target: T1, Histamine H4 receptor (Homo sapiens, UniProt Q9H3N8); assay: Displacement of [3H]-histamine from full length human H4R expressed in HEK293 cells; format: cell-based
Histamine H4 receptor [7] = biological target: T1, Histamine H4 receptor; assay: Antagonist activity at full length human H4R expressed in HEK293 cells assessed as reversal of forskolin-induced cAMP production by CRE-beta-lactamase reporter gene assay; format: functional, cell-based
[8] = Lipophilicity, log D of the compound; format: physicochemical; details: octanol/water
[9] = Blood clearance in dog at 1 mg/kg, iv and 10 mg/kg, po; format: ADME, organism-based, Canis lupus familiaris
[10] = Volume of distribution in dog blood at 1 mg/kg, iv and 10 mg/kg, po; format: ADME, organism-based, Canis lupus familiaris
[11] = Half life in dog at 1 mg/kg, iv and 10 mg/kg, po; format: ADME, organism-based, Canis lupus familiaris; details: in vivo
[12] = Oral bioavailability in dog at 10 mg/kg; format: ADME, organism-based, Canis lupus familiaris; details: in vivo
[13] = Blood clearance in rat at 1 mg/kg, iv and 5 mg/kg, po; format: ADME, organism-based
[14] = Volume of distribution in rat blood at 1 mg/kg, iv and 5 mg/kg, po; format: ADME, organism-based
[15] = Half life in rat at 1 mg/kg, iv and 5 mg/kg, po; format: ADME, organism-based; details: in vivo
[16] = Oral bioavailability in rat at 5 mg/kg; format: ADME, organism-based; details: in vivo
[17] = Plasma protein binding in rat at 1 mg/kg, iv and 5 mg/kg, po; format: ADME, organism-based; details: read-out: PPB (converted)
Plasma = assay: Plasma protein binding in dog at 1 mg/kg, iv and 10 mg/kg, po; format: ADME, organism-based, Canis lupus familiaris; details: in vivo
[18] = Plasma protein binding in human; format: ADME, cell-free; details: read-out: PPB (converted)
[19] = Ratio of drug level in blood to plasma in rat at 1 mg/kg, iv and 5 mg/kg, po; format: ADME, organism-based
[20] = Ratio of drug level in blood to plasma in dog at 1 mg/kg, iv and 10 mg/kg, po; format: ADME, organism-based, Canis lupus familiaris
[21] = Ratio of drug level in blood to plasma in human; format: ADME; details: blood and plasma
Histamine H4 receptor [22] = biological target: T1, Histamine H4 receptor; assay: Antagonist activity at H4R in human eosinophils assessed as inhibition of histamine-induced CD11b upregulation; format: functional
Histamine H4 receptor [23] = biological target: T1, Histamine H4 receptor; assay: Antagonist activity at H4R in human eosinophils assessed as inhibition of histamine-induced actin polymerisation; format: functional
Histamine H4 receptor [24] = biological target: T1, Histamine H4 receptor; assay: Displacement of [3H]-histamine from human H4R expressed in HEK293T cells; format: cell-based, HEK-293T
[25] = Displacement of [3H]-histamine from macaque H4R expressed in HEK293T cells; format: cell-based, Macaca mulatta; details: hek-293t
[26] = Displacement of [3H]-histamine from dog H4R expressed in HEK293T cells; format: cell-based, Canis lupus familiaris; details: hek-293t
Histamine H4 receptor [27] = biological target: T2, Histamine H4 receptor (Cavia porcellus, UniProt Q91ZY3); assay: Displacement of [3H]-histamine from guinea pig H4R expressed in HEK293T cells; format: cell-based, HEK-293T
T2 sequence (Q91ZY3 whole entry): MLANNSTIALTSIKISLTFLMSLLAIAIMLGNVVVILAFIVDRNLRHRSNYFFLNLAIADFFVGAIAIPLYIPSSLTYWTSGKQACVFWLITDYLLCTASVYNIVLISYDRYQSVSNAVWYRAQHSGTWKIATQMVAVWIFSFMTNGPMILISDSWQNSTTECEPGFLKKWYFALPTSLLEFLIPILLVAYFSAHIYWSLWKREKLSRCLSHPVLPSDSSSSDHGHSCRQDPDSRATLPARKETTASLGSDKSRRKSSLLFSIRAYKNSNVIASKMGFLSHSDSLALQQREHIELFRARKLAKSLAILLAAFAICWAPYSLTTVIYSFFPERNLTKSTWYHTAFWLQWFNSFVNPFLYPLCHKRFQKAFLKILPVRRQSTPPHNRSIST

Histamine H4 receptor [28] = biological target: Histamine H4 receptor (Rattus norvegicus, UniProt Q91ZY1); assay: Displacement of [3H]-histamine from rat H4R expressed in HEK293T cells; format: cell-based, HEK-293T
Sequence of Histamine H4 receptor (Rattus norvegicus, UniProt Q91ZY1) (Q91ZY1 whole entry): as the sequence (Q91ZY1 whole entry) above

Histamine H4 receptor [29] = biological target: T3, Histamine H4 receptor (Mus musculus, UniProt Q91ZY2); assay: Displacement of [3H]-histamine from mouse H4R expressed in HEK293T cells; format: cell-based, HEK-293T
T3 sequence (Q91ZY2 whole entry): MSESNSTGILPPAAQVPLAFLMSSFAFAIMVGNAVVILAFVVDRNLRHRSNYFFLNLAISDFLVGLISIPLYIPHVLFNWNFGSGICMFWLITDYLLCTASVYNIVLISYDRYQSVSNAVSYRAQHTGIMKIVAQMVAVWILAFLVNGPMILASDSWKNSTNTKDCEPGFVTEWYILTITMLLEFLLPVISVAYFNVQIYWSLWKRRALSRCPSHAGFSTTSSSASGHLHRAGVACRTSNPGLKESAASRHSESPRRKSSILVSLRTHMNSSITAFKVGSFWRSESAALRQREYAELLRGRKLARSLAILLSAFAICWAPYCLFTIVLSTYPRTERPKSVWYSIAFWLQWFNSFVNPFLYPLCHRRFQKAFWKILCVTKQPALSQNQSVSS

Canis familiaris = assay: Toxicity in dog assessed as adverse events dosed orally for 7 days; format: organism-based, Canis lupus familiaris; details: in vivo, po, 168 h
Rattus norvegicus [30] = assay: Toxicity in po dosed rat assessed as lymphoid depletion from spleen for 4 days; format: organism-based; details: in vivo, 96 h
Rattus norvegicus [31] = assay: Toxicity in po dosed rat assessed as lymphoid depletion from thymus for 4 days; format: organism-based; details: in vivo, 96 h
Rattus norvegicus [32] = assay: Toxicity in po dosed rat assessed as lymphoid depletion from gut for 4 days; format: organism-based; details: in vivo, 96 h
Rattus norvegicus [33] = assay: Toxicity in po dosed rat assessed as decrease in reticulocyte counts for 4 days; format: organism-based; details: in vivo, 96 h
Rattus norvegicus [34] = assay: Toxicity in po dosed rat assessed as decrease in erythropoiesis for 4 days; format: organism-based, Erythrocyte; details: in vivo, 96 h
Rattus norvegicus [35] = assay: Toxicity in rat assessed as vacuolation at high dose, po for 7 days; format: organism-based; details: in vivo, 168 h
[36] = Half life in rat at 1 mg/kg, iv and 1 mg/kg, po; format: ADME, organism-based; details: in vivo
[37] = Oral bioavailability in rat at 1 mg/kg; format: ADME, organism-based; details: in vivo
[38] = Blood clearance in dog at 3 mg/kg, iv; format: ADME, organism-based, Canis lupus familiaris; parameters: dose 3 mg/kg, route intravenous
[39] = Volume of distribution in dog blood at 3 mg/kg, iv; format: ADME, organism-based, Canis lupus familiaris; parameters: dose 3 mg/kg, route intravenous
[40] = Half life in dog at 3 mg/kg, iv; format: ADME, organism-based, Canis lupus familiaris; parameters: dose 3 mg/kg, route intravenous; details: in vivo
[41] = Blood clearance in rat at 1 mg/kg, iv and 1 mg/kg, po; format: ADME, organism-based
[42] = Volume of distribution in rat blood at 1 mg/kg, iv and 1 mg/kg, po; format: ADME, organism-based
[43] = Clearance in rat at 1 mg/kg, iv and 1 mg/kg, po; format: ADME, organism-based; details: in vivo
[44] = Volume of distribution in rat at 1 mg/kg, iv and 1 mg/kg, po; format: ADME, organism-based; details: in vivo
Rattus norvegicus [45] = assay: Induction of pro-inflammatory response in rat dosed orally for 4 days; format: functional, organism-based
Rattus norvegicus [46] = assay: Toxicity in rat assessed as mortality at high dose, po for 7 days; format: organism-based; details: in vivo, 168 h

Activity [3]: Active
microsomal CLint [4]: < 7 µL/min/mg
microsomal CLint [5]: < 8.5 µL/min/mg
Ki (Histamine H4 receptor [6]): 2.4 nM
Ki (Histamine H4 receptor [7]): 1.56 nM
logD [8]: -0.1
clearance [9]: 7 mL/min/kg
Vd [10]: 14 L/kg
half-life [11]: 1440 min
bioavailability [12]: 39%
clearance [13]: 29 mL/min/kg
Vd [14]: 18 L/kg
half-life [15]: 420 min
bioavailability [16]: 62%
fraction unbound [17]: 0.81
PPB (Plasma): 0%
fraction unbound [18]: 0.84
blood plasma ratio [19]: 2
blood plasma ratio [20]: 1
blood plasma ratio [21]: 3
IC50 (Histamine H4 receptor [22]): 4.9 nM
IC50 (Histamine H4 receptor [23]): 1.3 nM
Ki (Histamine H4 receptor [24]): 6.17 nM
Ki (Histamine H4 receptor [27]): 123 nM
Ki (Histamine H4 receptor [28]): 12.3 nM
Ki (Histamine H4 receptor [29]): 20.9 nM
SMILES: CN[C@@H]1CCN(c2cc(NCC3CC3)nc(N)n2)C1 [ADRIFORANT]
Activity (HEK-293T [1]): Active
Activity (HEK-293T [2]): Active
pKi [25]: 7.81
pKi [26]: 5.79

microsomal CLint [5]: 33 µL/min/mg
Ki (Histamine H4 receptor [7]): 1.5 nM
SMILES: CNC1CN(c2cc(NCCC(C)(C)C)nc(N)n2)C1
Activity (Canis familiaris): Non-toxic
Activity (Rattus norvegicus [30]): Non-toxic
Activity (Rattus norvegicus [31]): Non-toxic
Activity (Rattus norvegicus [32]): Non-toxic
Activity (Rattus norvegicus [33]): Non-toxic
Activity (Rattus norvegicus [34]): Non-toxic

microsomal CLint [4]: < 7 µL/min/mg
microsomal CLint [5]: < 8.5 µL/min/mg
Ki (Histamine H4 receptor [6]): 1.7 nM
Ki (Histamine H4 receptor [7]): 0.034 nM
logD [8]: 0.7
half-life [36]: 414 min
bioavailability [37]: 57%
clearance [38]: 30 mL/min/kg
Vd [39]: 48 L/kg
half-life [40]: 1140 min
clearance [41]: 77 mL/min/kg
Vd [42]: 49 L/kg
SMILES: CNC1CN(c2cc(NCC(C)(C)C)nc(N)n2)C1
Activity (Rattus norvegicus [35]): Toxic
Activity (Canis familiaris): Non-toxic
Activity (Rattus norvegicus [30]): Non-toxic
Activity (Rattus norvegicus [31]): Non-toxic
Activity (Rattus norvegicus [32]): Non-toxic
Activity (Rattus norvegicus [33]): Non-toxic
Activity (Rattus norvegicus [34]): Non-toxic

microsomal CLint [4]: < 7 µL/min/mg
microsomal CLint [5]: 10 µL/min/mg
Ki (Histamine H4 receptor [6]): 10 nM
Ki (Histamine H4 receptor [7]): 10 nM
clearance [43]: 31 mL/min/kg
Vd [44]: 31 L/kg
half-life [36]: 720 min
bioavailability [37]: 20%
SMILES: CN1C[C@@H]2CN(C(=N)c3nc4cc(F)c(F)cc4[nH]3)C[C@@H]2C1
Activity (Rattus norvegicus [30]): Dose-dependent effect
Activity (Rattus norvegicus [31]): Dose-dependent effect
Activity (Rattus norvegicus [32]): Dose-dependent effect
Activity (Rattus norvegicus [33]): Toxic
Activity (Rattus norvegicus [34]): Toxic
Activity (Rattus norvegicus [45]): Active

microsomal CLint [4]: < 7 µL/min/mg
microsomal CLint [5]: 10 µL/min/mg
Ki (Histamine H4 receptor [6]): 128 nM
Ki (Histamine H4 receptor [7]): 53 nM
clearance [43]: 59 mL/min/kg
Vd [44]: 4.1 L/kg
half-life [36]: 48 min
bioavailability [37]: 50%
SMILES: CN1C[C@@H]2CN(C(=O)c3nc4cc(F)c(F)cc4[nH]3)C[C@@H]2C1
Activity (Rattus norvegicus [30]): Dose-dependent effect
Activity (Rattus norvegicus [31]): Dose-dependent effect
Activity (Rattus norvegicus [32]): Dose-dependent effect
Activity (Rattus norvegicus [33]): Toxic
Activity (Rattus norvegicus [34]): Toxic
Activity (Rattus norvegicus [45]): Active

SMILES: CNC1CN(c2cc(N)nc(NCC3CC3)n2)C1
Activity (Rattus norvegicus [46]): Toxic
microsomal CLint [5]: < 8.5 µL/min/mg
Ki (Histamine H4 receptor [6]): 9070 nM
Ki (Histamine H4 receptor [7]): > 2000 nM
